Measured values: patent publication US20250041298A1, “CDK4 INHIBITOR FOR THE TREATMENT OF CANCER” (Pfizer Inc., priority 2021, published 2025)
Like-named read-outs stand apart in the source and are kept apart here. Marks after values point to notes of the source that are not given here.

Legend:
[1] = Phase 1/1b clinical trial: plasma pharmacokinetics of PF-07220060; format: in vivo, human; conditions: for Cmax / AUC / Tmax / half-life: po; for half-life: arithmetic mean
Experimental: Oral PF-07220060 was administered with at least 8 oz (240 mL) of water on an empty stomach (except during the food effect evaluation on Day-7 in Part 1D). No food or liquids other than water was consumed for 2 hours before and 1 hour following each dose throughout the study for BID dosing. No food or liquids other than water was consumed for 2 hours before and 2 hours after each dose throughout the study for QD dosing.
In the ongoing Phase 1/1b Study, as of Aug. 30, 2022, preliminary PK data for PF-07220060 as monotherapy (Part 1A) and in combination with endocrine therapy (Part 1B and Part 1C) was available from 60 participants with advanced solid tumors. PF-07220060 was administered orally as a single agent at doses ranging from 100 to 500 mg BID, and in combination with either letrozole or fulvestrant at 300 to 400 mg BID. Available plasma concentration-time data of PF-07220060 were analyzed using noncompartmental methods.
Preliminary noncompartmental PK analysis was conducted based on available samples collected from participants in the Study. […] Table 4 presents the summary of PK parameters for PF-07220060 as monotherapy, and in combination with letrozole or fulvestrant.

[2] = test system: AR+ prostate carcinoma cell line (LNCaP) prostate cancer spheroids; assay: Multicellular tumor spheroid growth inhibition (SGI), LNCaP; format: cell-based, human
Experimental: The purpose of this example was to evaluate the combination effect of PF-07220060 and endocrine therapy in multicellular tumor spheroid growth inhibition (SGI). To model the characteristics and cellular behavior of human tumors, the activity of PF-07220060 was evaluated in three dimensional MCTS models of HR+ breast cancer and AR+ prostate cancer following PF-07220060 treatment as a single agent and in combination with fulvestrant • 1) in HR+, HER2-T47D breast cancer spheroids. • 2) in HR+, HER2+BT474 breast cancer spheroids, • 3) in BT474 spheroids, and • 4) in AR+ prostate carcinoma cell line (LNCaP) prostate cancer spheroids. Spheroids were treated with increasing concentrations of 100, 300, or 1000 nM PF-07220060 and compared to palbociclib at the clinically relevant concentration of 30 nM.

[3] = 200 mg BID oral monotherapy (Part 1A), C1D15, geometric mean
[4] = 300 mg BID oral + fulvestrant (Part 1C), C1D15, geometric mean
[5] = 300 mg BID oral + letrozole (Part 1B), C1D15, geometric mean
[6] = 300 mg BID oral monotherapy (Part 1A), C1D15, geometric mean
[7] = 400 mg BID oral + fulvestrant (Part 1C), C1D15, geometric mean
[8] = 400 mg BID oral + letrozole (Part 1B), C1D15, geometric mean
[9] = 400 mg BID oral monotherapy (Part 1A), C1D15, geometric mean

**Q.** What does the source list for `CC(C)n1c(C(C)(C)O)nc2c(F)cc(-c3nc(N[C@@H]4CCOC[C@H]4O)ncc3Cl)cc21` [PF-07220060, 1,5-anhydro-3-({5-chloro-4-[4-fluoro-2-(2-hydroxypropan-2-yl)-1-(propan-2-yl)-1H-benzimidazol-6-yl]pyrimidin-2-yl}amino)-2,3-dideoxy-D-threo-pentitol]?
**A.** CL/F ([1]; 100 mg BID oral monotherapy (Part 1A), C1D15, geometric mean, n = 2): 24.61 L/h; CL/F [1, 3]: 31.41 L/h; Cmin [1, 3]: 440 ng/mL; CL/F [1, 4]: 38.02 L/h; Cmin [1, 4]: 347.4 ng/mL; CL/F [1, 5]: 28.95 L/h; Cmin [1, 5]: 487.1 ng/mL; CL/F [1, 6]: 37.06 L/h; Cmin [1, 6]: 470.4 ng/mL; CL/F [1, 7]: 41.86 L/h; Cmin [1, 7]: 563.3 ng/mL; CL/F [1, 8]: 34.9 L/h; Cmin [1, 8]: 728.3 ng/mL; CL/F [1, 9]: 49.98 L/h; Cmin [1, 9]: 450.3 ng/mL; Cmin ([1]; 500 mg BID oral monotherapy (Part 1A), C1D15, geometric mean): 848.8 ng/mL; CL/F ([1]; 500 mg BID oral monotherapy (Part 1A), C1D15, n = 1): 40.1^a L/hr; Cmax ([1]; human, plasma, 100 mg, 100 mg BID oral monotherapy (Part 1A), C1D1 post first dose, geometric mean): 280 ng/mL; AUC ([1]; human, plasma, 100 mg, 100 mg BID oral monotherapy (Part 1A), C1D1 post first dose, geometric mean, read-out: AUC12): 1780 ng·h/mL; Tmax ([1]; human, plasma, 100 mg, 100 mg BID oral monotherapy (Part 1A), C1D1 post first dose, median, read-out: Tmax): 2 h; AUC ([1]; human, plasma, 100 mg, 100 mg BID oral monotherapy (Part 1A), C1D15, geometric mean, n = 2, read-out: AUCtau): 4060 ng·h/mL; Cmax ([1]; human, plasma, 100 mg, 100 mg BID oral monotherapy (Part 1A), C1D15 post multiple doses, geometric mean): 617 ng/mL; Tmax ([1]; human, plasma, 100 mg, 100 mg BID oral monotherapy (Part 1A), C1D15 post multiple doses, median, read-out: Tmax): 1 h; Cmax ([1]; human, plasma, 200 mg, 200 mg BID oral monotherapy (Part 1A), C1D1 post first dose, geometric mean): 454 ng/mL; AUC ([1]; human, plasma, 200 mg, 200 mg BID oral monotherapy (Part 1A), C1D1 post first dose, geometric mean, read-out: AUC12): 2330 ng·h/mL; Tmax ([1]; human, plasma, 200 mg, 200 mg BID oral monotherapy (Part 1A), C1D1 post first dose, median, read-out: Tmax): 3.9 h; half-life ([1]; human, plasma, 200 mg, 200 mg BID oral monotherapy (Part 1A), C1D15): 5.1 h; AUC ([1]; human, plasma, 200 mg, 200 mg BID oral monotherapy (Part 1A), C1D15, geometric mean, read-out: AUCtau): 6370 ng·h/mL; Cmax ([1]; human, plasma, 200 mg, 200 mg BID oral monotherapy (Part 1A), C1D15 post multiple doses, geometric mean): 1010 ng/mL; Tmax ([1]; human, plasma, 200 mg, 200 mg BID oral monotherapy (Part 1A), C1D15 post multiple doses, median, read-out: Tmax): 2.5 h; Cmax ([1]; human, plasma, 300 mg BID oral + fulvestrant (Part 1C), C1D1 post first dose, geometric mean): 849 ng/mL; AUC ([1]; human, plasma, 300 mg BID oral + fulvestrant (Part 1C), C1D1 post first dose, geometric mean, read-out: AUC12): 6130 ng·h/mL; Tmax ([1]; human, plasma, 300 mg BID oral + fulvestrant (Part 1C), C1D1 post first dose, median, read-out: Tmax): 2 h; half-life ([1]; human, plasma, 300 mg BID oral + fulvestrant (Part 1C), C1D15): 5.7 h; AUC ([1]; human, plasma, 300 mg BID oral + fulvestrant (Part 1C), C1D15, geometric mean, read-out: AUCtau): 7890 ng·h/mL; Cmax ([1]; human, plasma, 300 mg BID oral + fulvestrant (Part 1C), C1D15 post multiple doses, geometric mean): 1190 ng/mL; Tmax ([1]; human, plasma, 300 mg BID oral + fulvestrant (Part 1C), C1D15 post multiple doses, median, read-out: Tmax): 1 h; Cmax ([1]; human, plasma, 300 mg BID oral + letrozole (Part 1B), C1D1 post first dose, geometric mean): 989 ng/mL; AUC ([1]; human, plasma, 300 mg BID oral + letrozole (Part 1B), C1D1 post first dose, geometric mean, read-out: AUC12): 6440 ng·h/mL; Tmax ([1]; human, plasma, 300 mg BID oral + letrozole (Part 1B), C1D1 post first dose, median, read-out: Tmax): 3 h; half-life ([1]; human, plasma, 300 mg BID oral + letrozole (Part 1B), C1D15): 4.1 h; AUC ([1]; human, plasma, 300 mg BID oral + letrozole (Part 1B), C1D15, geometric mean, read-out: AUCtau): 10400 ng·h/mL; Cmax ([1]; human, plasma, 300 mg BID oral + letrozole (Part 1B), C1D15 post multiple doses, geometric mean): 1520 ng/mL; Tmax ([1]; human, plasma, 300 mg BID oral + letrozole (Part 1B), C1D15 post multiple doses, median, read-out: Tmax): 1 h; Cmax ([1]; human, plasma, 300 mg, 300 mg BID oral monotherapy (Part 1A), C1D1 post first dose, geometric mean): 741 ng/mL; AUC ([1]; human, plasma, 300 mg, 300 mg BID oral monotherapy (Part 1A), C1D1 post first dose, geometric mean, read-out: AUC12): 4560 ng·h/mL; Tmax ([1]; human, plasma, 300 mg, 300 mg BID oral monotherapy (Part 1A), C1D1 post first dose, median, read-out: Tmax): 3.8 h; AUC ([1]; human, plasma, 300 mg, 300 mg BID oral monotherapy (Part 1A), C1D15, geometric mean, read-out: AUCtau): 8100 ng·h/mL; Cmax ([1]; human, plasma, 300 mg, 300 mg BID oral monotherapy (Part 1A), C1D15 post multiple doses, geometric mean): 1170 ng/mL; Tmax ([1]; human, plasma, 300 mg, 300 mg BID oral monotherapy (Part 1A), C1D15 post multiple doses, median, read-out: Tmax): 2.1 h; Cmax ([1]; human, plasma, 400 mg BID oral + fulvestrant (Part 1C), C1D1 post first dose, geometric mean): 730 ng/mL; AUC ([1]; human, plasma, 400 mg BID oral + fulvestrant (Part 1C), C1D1 post first dose, geometric mean, read-out: AUC12): 4840 ng·h/mL; Tmax ([1]; human, plasma, 400 mg BID oral + fulvestrant (Part 1C), C1D1 post first dose, median, read-out: Tmax): 2.2 h; half-life ([1]; human, plasma, 400 mg BID oral + fulvestrant (Part 1C), C1D15): 6.6 h; Cmax ([1]; human, plasma, 400 mg BID oral + letrozole (Part 1B), C1D1 post first dose, geometric mean): 950 ng/mL; AUC ([1]; human, plasma, 400 mg BID oral + letrozole (Part 1B), C1D1 post first dose, geometric mean, read-out: AUC12): 7110 ng·h/mL; Tmax ([1]; human, plasma, 400 mg BID oral + letrozole (Part 1B), C1D1 post first dose, median, read-out: Tmax): 2.2 h; AUC ([1]; human, plasma, 400 mg BID oral + letrozole (Part 1B), C1D15, geometric mean, read-out: AUCtau): 11500 ng·h/mL; Cmax ([1]; human, plasma, 400 mg BID oral + letrozole (Part 1B), C1D15 post multiple doses, geometric mean): 1420 ng/mL; Tmax ([1]; human, plasma, 400 mg BID oral + letrozole (Part 1B), C1D15 post multiple doses, median, read-out: Tmax): 1.6 h; AUC ([1]; human, plasma, 400 mg BID, 400 mg BID oral + fulvestrant (Part 1C), C1D15, geometric mean, read-out: AUCtau): 9560 ng·h/mL; Cmax ([1]; human, plasma, 400 mg BID, 400 mg BID oral + fulvestrant (Part 1C), C1D15 post multiple doses, geometric mean): 1380 ng/mL; Tmax ([1]; human, plasma, 400 mg BID, 400 mg BID oral + fulvestrant (Part 1C), C1D15 post multiple doses, median, read-out: Tmax): 1.1 h; Cmax ([1]; human, plasma, 400 mg, 400 mg BID oral monotherapy (Part 1A), C1D1 post first dose, geometric mean): 766 ng/mL; AUC ([1]; human, plasma, 400 mg, 400 mg BID oral monotherapy (Part 1A), C1D1 post first dose, geometric mean, read-out: AUC12): 5110 ng·h/mL; Tmax ([1]; human, plasma, 400 mg, 400 mg BID oral monotherapy (Part 1A), C1D1 post first dose, median, read-out: Tmax): 2.1 h; half-life ([1]; human, plasma, 400 mg, 400 mg BID oral monotherapy (Part 1A), C1D15, n = 2): 6.6 h; AUC ([1]; human, plasma, 400 mg, 400 mg BID oral monotherapy (Part 1A), C1D15, geometric mean, read-out: AUCtau): 8000 ng·h/mL; Cmax ([1]; human, plasma, 400 mg, 400 mg BID oral monotherapy (Part 1A), C1D15 post multiple doses, geometric mean): 949 ng/mL; Tmax ([1]; human, plasma, 400 mg, 400 mg BID oral monotherapy (Part 1A), C1D15 post multiple doses, median, read-out: Tmax): 1 h; Cmax ([1]; human, plasma, 500 mg, 500 mg BID oral monotherapy (Part 1A), C1D1 post first dose, geometric mean): 637 ng/mL; AUC ([1]; human, plasma, 500 mg, 500 mg BID oral monotherapy (Part 1A), C1D1 post first dose, geometric mean, read-out: AUC12): 4170 ng·h/mL; Tmax ([1]; human, plasma, 500 mg, 500 mg BID oral monotherapy (Part 1A), C1D1 post first dose, median, read-out: Tmax): 1.9 h; AUC ([1]; human, plasma, 500 mg, 500 mg BID oral monotherapy (Part 1A), C1D15, n = 1, read-out: AUCtau): 12500 ng·h/mL; Cmax ([1]; human, plasma, 500 mg, 500 mg BID oral monotherapy (Part 1A), C1D15 post multiple doses, geometric mean): 1760 ng/mL; Tmax ([1]; human, plasma, 500 mg, 500 mg BID oral monotherapy (Part 1A), C1D15 post multiple doses, median, read-out: Tmax): 4 h; Tmax ([1]; human, plasma, following oral dose administration, across cohorts (100 to 500 mg BID), read-out: median Tmax values): 1 to 4 h; concentration at 15 day ([1]; human, plasma, 100 mg BID oral monotherapy (Part 1A), C1D15, geometric mean, read-out: Cmin): 231 ng/mL; SGI ([2]; 100 nM single agent): 27%; SGI ([2]; 300 nM single agent): 38; 38%; SGI ([2]; 1000 nM single agent): 53%
